Experimental data published in ChEMBL document CHEMBL1134347, “Structure-activity studies of substituted quinoxalinones as multiple-drug-resistance antagonists” (J Med Chem, 2001).

Key:
[1] = target: Multidrug resistance-associated protein 1 (Homo sapiens, UniProt P33527); assay: The MRP1 antagonism score is the percentage of MCF-7/VP cells surviving in the absence of vincristine to that of in the presence of vincristine.; assay type: functional
MCF7 [2] = assay: Cytotoxicity against MCF-7 breast carcinoma cells at 10 ug/mL; assay type: functional, cell-based; details: Homo sapiens
MCF7 [3] = assay type: functional, Homo sapiens

Chain of Multidrug resistance-associated protein 1 (P33527 whole entry): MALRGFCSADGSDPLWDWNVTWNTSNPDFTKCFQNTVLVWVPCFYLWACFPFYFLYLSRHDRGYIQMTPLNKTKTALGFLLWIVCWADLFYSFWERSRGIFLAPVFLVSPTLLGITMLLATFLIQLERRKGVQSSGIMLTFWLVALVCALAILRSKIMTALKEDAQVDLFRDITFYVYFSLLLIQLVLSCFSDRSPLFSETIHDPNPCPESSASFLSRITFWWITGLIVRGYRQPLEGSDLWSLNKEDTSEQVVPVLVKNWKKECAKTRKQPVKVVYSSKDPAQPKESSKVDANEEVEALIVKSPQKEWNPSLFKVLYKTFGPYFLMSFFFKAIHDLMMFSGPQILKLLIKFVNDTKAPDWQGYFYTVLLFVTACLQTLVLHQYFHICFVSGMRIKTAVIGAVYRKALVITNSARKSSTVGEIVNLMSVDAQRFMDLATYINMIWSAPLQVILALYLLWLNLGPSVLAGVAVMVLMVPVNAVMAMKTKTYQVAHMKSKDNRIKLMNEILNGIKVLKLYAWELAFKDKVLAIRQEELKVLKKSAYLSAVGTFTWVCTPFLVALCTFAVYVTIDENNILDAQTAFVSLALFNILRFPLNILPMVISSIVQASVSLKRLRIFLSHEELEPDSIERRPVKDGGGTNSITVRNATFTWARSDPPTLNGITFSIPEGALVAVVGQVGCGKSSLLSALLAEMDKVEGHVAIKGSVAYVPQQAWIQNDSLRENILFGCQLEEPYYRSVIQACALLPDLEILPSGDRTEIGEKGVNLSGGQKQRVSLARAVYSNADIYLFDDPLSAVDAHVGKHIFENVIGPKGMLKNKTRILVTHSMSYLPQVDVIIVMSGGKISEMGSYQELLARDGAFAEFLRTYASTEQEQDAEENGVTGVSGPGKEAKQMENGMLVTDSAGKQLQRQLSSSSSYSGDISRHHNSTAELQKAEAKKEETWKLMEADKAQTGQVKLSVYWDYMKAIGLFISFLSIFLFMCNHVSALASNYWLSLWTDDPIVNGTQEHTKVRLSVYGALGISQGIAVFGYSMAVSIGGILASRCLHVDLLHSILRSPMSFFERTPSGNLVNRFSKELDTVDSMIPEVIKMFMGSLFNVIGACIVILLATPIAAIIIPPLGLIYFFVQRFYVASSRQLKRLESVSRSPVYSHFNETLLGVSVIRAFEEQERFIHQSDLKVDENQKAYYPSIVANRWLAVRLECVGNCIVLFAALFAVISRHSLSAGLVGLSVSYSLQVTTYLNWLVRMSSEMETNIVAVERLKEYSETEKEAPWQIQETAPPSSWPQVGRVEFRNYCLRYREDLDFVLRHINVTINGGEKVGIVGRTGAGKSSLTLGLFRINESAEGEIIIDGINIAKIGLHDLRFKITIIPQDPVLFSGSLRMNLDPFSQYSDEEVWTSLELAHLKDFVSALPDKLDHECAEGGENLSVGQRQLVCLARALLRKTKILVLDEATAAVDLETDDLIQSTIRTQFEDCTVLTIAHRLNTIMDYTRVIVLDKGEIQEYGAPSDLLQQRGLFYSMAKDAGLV

SMILES | Ratio [1] | IC50 (MCF7 [2]) | Toxicity (MCF7 [3])
CCOC(=O)c1ccc(OCc2nc3ccccc3n(C)c2=O)cc1 | 0.9 | > 74 µM | 
Nc1ccc(Br)cc1-c1nc2cc3ccccc3cc2nc1O | 1.3 |  | 49%
Cn1c(=O)c(COc2ccccc2)nc2ccccc21 | 1 | > 94 µM | 
Cn1c(=O)c(COc2cccnc2)nc2ccccc21 | 1.1 | > 56 µM | 
Cn1c(=O)c(COc2c(F)c(F)c(F)c(F)c2F)nc2ccccc21 | 0.8 | > 70 µM | 
Nc1ccccc1-c1nc2ccccc2nc1O | 1.1 |  | 22%
Cn1c(=O)c(COc2cccc3ccccc23)nc2ccccc21 | 0.9 | 20 µM | 
Cn1c(=O)c(COc2ccc(C(=O)c3ccccc3)cc2)nc2ccccc21 | 0.9 | > 67 µM | 
CN(C)c1cccc(OCc2nc3ccccc3n(C)c2=O)c1 | 0.9 | 57 µM | 
Cc1nc2ccccc2nc1O | 1.1 | > 156 µM | 
Nc1ccccc1-c1nc2cc3ccccc3cc2nc1O | 1.3 |  | 37%
Cn1c(=O)c(COc2ccccc2C(=O)Nc2ccccc2)nc2ccccc21 | 1 | > 32 µM | 
Cn1c(=O)c(Cc2ccccc2)nc2ccccc21 | 1.1 | > 100 µM | 
CNc1ccc(OC)cc1-c1nc2cc3ccccc3cc2nc1O | 1 |  | 25%
Cn1c(=O)c(COc2ccccc2Cc2ccccc2)nc2ccccc21 | 1.1 | 8.1 µM | 
CNc1ccc(OC)cc1-c1nc2cc3ccccc3cc2n(C)c1=O | 2.1 |  | 3%
COC(=O)c1ccc(OCc2nc3ccccc3n(C)c2=O)c(OC)c1 | 1.1 | 71 µM | 
Cn1c(=O)c(COc2ccc(F)cc2)nc2ccccc21 | 0.8 | 26 µM | 
Oc1nc2ccccc2nc1Cc1ccccc1 | 1 | > 106 µM | 
CNc1ccc(OC)cc1-c1nc2ccccc2n(C)c1=O | 3.5 |  | 7%
Cn1c(=O)c(COc2ccc(C#N)cc2)nc2ccccc21 | 0.8 | > 43 µM | 
Cc1cc(OCc2nc3ccccc3n(C)c2=O)ccc1[N+](=O)[O-] | 1.1 | > 77 µM | 
CNc1ccccc1-c1nc2cc([N+](=O)[O-])ccc2n(C)c1=O | 1.1 |  | 7%
Cc1nc2ccccc2n(C)c1=O | 0.7 | > 144 µM | 
Cn1c(=O)c(COc2ccc(-c3ccccc3)cc2)nc2ccccc21 | 0.7 | 30 µM | 
Cn1c(=O)c(COc2cccc(Nc3ccccc3)c2)nc2ccccc21 | 0.9 | 25 µM | 
COc1ccc(CCN(C)CCCC(C#N)(c2ccc(OC)c(OC)c2)C(C)C)cc1OC (stereo not drawn) |  | > 51 µM | 
